Experimental data reported in patent US8410155B2, “Arylpropionamide, arylacrylamide, arylpropynamide, or arylmethylurea analogs as factor XIA inhibitors” (Bristol-Myers Squibb Company, priority 2006, dated 2013).
Structures can show the parent of a compound that is named as a salt.

Target: T1, purified human Factor XIa (Homo sapiens, UniProt P03951)
T1 construct: purchased Haematologic Technologies
Assay: Factor XIa enzyme inhibition assay (chromogenic substrate S-2366)
Assay type: biochemical
Conditions: substrate S-2366, 50 mM HEPES pH 7.4
Description: The effectiveness of compounds of the present invention as inhibitors of the coagulation factors XIa, VIIa, IXa, Xa, XIIa, plasma kallikrein or thrombin, can be determined using a relevant purified serine protease, respectively, and an appropriate synthetic substrate. The rate of hydrolysis of the chromogenic or fluorogenic substrate by the relevant serine protease was measured both in the absence and presence of compounds of the present invention. […] A decrease in the rate of absorbance or fluorescence change in the presence of inhibitor is indicative of enzyme inhibition. Such methods are known to one skilled in the art. The results of this assay are expressed as the inhibitory constant, Ki.
Values of Ki were determined by allowing the protease to react with the substrate in the presence of the inhibitor. Reactions were allowed to go for periods of 20-180 minutes (depending on the protease) and the velocities (rate of absorbance or fluorescence change versus time) were measured. The following relationships were used to calculate Ki values: (vo−vs)/vs=I/(Ki(1+S/Km)) for a competitive inhibitor with one binding site; or vs/vo=A+((B−A)/1+((IC50/(I)^n))) and Ki=IC50/(1+S/Km) for a competitive inhibitor

T1 sequence (P03951 388-625 limits assumed): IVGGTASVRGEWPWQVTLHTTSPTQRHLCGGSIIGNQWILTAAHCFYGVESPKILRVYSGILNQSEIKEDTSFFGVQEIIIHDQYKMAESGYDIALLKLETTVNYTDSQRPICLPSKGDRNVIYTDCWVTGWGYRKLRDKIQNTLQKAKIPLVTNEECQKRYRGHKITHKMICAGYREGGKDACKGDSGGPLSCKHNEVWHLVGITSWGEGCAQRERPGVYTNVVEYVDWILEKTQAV
T1 sequence (P03951 19-387 partner limits assumed): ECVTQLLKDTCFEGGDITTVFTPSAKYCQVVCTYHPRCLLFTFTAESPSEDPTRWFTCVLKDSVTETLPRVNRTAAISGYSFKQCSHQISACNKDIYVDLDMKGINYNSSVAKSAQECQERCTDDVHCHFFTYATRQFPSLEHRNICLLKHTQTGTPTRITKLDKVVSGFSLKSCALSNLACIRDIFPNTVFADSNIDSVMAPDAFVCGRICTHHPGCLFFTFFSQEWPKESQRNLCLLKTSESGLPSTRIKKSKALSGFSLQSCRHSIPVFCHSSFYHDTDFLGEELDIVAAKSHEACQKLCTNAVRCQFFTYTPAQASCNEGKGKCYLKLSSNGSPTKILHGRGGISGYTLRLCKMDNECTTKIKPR

Row | Compound | Ki [µM]
1 | COC(=O)Nc1ccc(-c2nc(CNC(=O)CCc3cc(Cl)ccc3-n3cnnn3)[nH]c2Cl)cc1 [Example 2, [4-(5-Chloro-2-{[3-(5-chloro-2-tetrazol-1-yl-phenyl)-propionylamino]-methyl}-1H-imidazol-4-yl)-phenyl]-carbamic acid methyl ester, trifluoroacetic acid salt] | 0.0168
2 | O=C(/C=C/c1cc(Cl)ccc1-n1cnnn1)NCc1nc(-c2ccc3c(c2)CCC(=O)N3)c(Cl)[nH]1 [Example 3, (E)-N-[5-Chloro-4-(2-oxo-1,2,3,4-tetrahydro-quinolin-6-yl)-1H-imidazol-2-ylmethyl]-3-(5-chloro-2-tetrazol-1-yl-phenyl)-acrylamide, trifluoroacetic acid salt] | 0.0121
3 | COC(=O)Nc1ccc(-c2cncc(CNC(=O)CCc3cc(Cl)ccc3-n3cnnn3)c2)cc1 [Example 6, [4-(5-{[3-(5-Chloro-2-tetrazol-1-yl-phenyl)-propionylamino]-methyl}-pyridin-3-yl)-phenyl]-carbamic acid methyl ester, trifluoroacetic acid salt] | 1.25
4 | COC(=O)Nc1ccc(-c2nc(CN(Cc3ccccc3)C(=O)/C=C/c3cc(Cl)ccc3-n3cnnn3)[nH]c2Cl)cc1 [Example 10, {4-[2-({Benzyl-[(E)-3-(5-chloro-2-tetrazol-1-yl-phenyl)-acryloyl]-amino}-methyl)-5-chloro-1H-imidazol-4-yl]-phenyl}-carbamic acid methyl ester, trifluoroacetic acid salt] | 1.51

Further lines, results first:

Row | Ki [µM] | Compound
5 | 0.475 | COC(=O)Nc1ccc(-c2ccnc(CNC(=O)/C=C/c3cc(Cl)ccc3-n3cnnn3)c2)cc1 [Example 7, [4-(2-{[(E)-3-(5-Chloro-2-tetrazol-1-yl-phenyl)-acryloylamino]-methyl}-pyridin-4-yl)-phenyl]-carbamic acid methyl ester, trifluoroacetic acid salt]
6 | 0.283 | COC(=O)Nc1ccc(-c2cncc(CNC(=O)/C=C/c3cc(Cl)ccc3-n3cnnn3)c2)cc1 [Example 5, [4-(5-{[(E)-3-(5-Chloro-2-tetrazol-1-yl-phenyl)-acryloylamino]-methyl}-pyridin-3-yl)-phenyl]-carbamic acid methyl ester, trifluoroacetic acid salt]
7 | 0.0273 | COC(=O)Nc1ccc(-c2[nH]c(CNC(=O)/C=C/c3cc(Cl)ccc3-n3cnnn3)nc2Cl)cc1 [Example 1, [4-(5-chloro-2-{[(E)-3-(5-chloro-2-tetrazol-1-yl-phenyl)-acryloylamino]-methyl}-1H-imidazol-4-yl)-phenyl]-carbamic acid methyl ester, trifluoroacetic acid salt]
8 | 0.277 | COC(=O)Nc1ccc(-c2c[nH]c(=O)c(CNC(=O)/C=C/c3cc(Cl)ccc3-n3cnnn3)c2)cc1 [Example 8, [4-(5-{[(E)-3-(5-Chloro-2-tetrazol-1-yl-phenyl)-acryloylamino]-methyl}-6-oxo-1,6-dihydro-pyridin-3-yl)-phenyl]-carbamic acid methyl ester]
